Data taken from PubChem BioAssay (NCI).
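Briefly, cells in 96-well plates were exposed to five compound concentrations for 48 h, and endpoints were estimated by linear interpolation. At the TGI there is no net growth.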

Tests used:
Assay in all cases: growth of human tumour cells (NCI), 48 h
[1] = test system: ACHN renal
[2] = test system: COLO 205 colon
[3] = test system: DMS 114 small cell lung
[4] = test system: DMS 273 small cell lung
[5] = test system: EKVX NSCLC
[6] = test system: HCT-116 colon
[7] = test system: HOP-62 NSCLC
[8] = test system: IGROV1 ovarian
[9] = test system: KM12 colon
[10] = test system: M19-MEL melanoma
[11] = test system: MALME-3M melanoma
[12] = test system: MDA-N
[13] = test system: MOLT-4 leukemia
[14] = test system: OVCAR-5 ovarian
[15] = test system: RXF 393 renal
[16] = test system: RXF-631 renal
[17] = test system: SF-295 CNS
[18] = test system: SK-MEL-2 melanoma
[19] = test system: SK-MEL-28 melanoma
[20] = test system: SK-MEL-5 melanoma
[21] = test system: SK-OV-3 ovarian
[22] = test system: SNB-19 CNS
[23] = test system: SNB-75 CNS
[24] = test system: SR leukemia
[25] = test system: TK-10 renal
[26] = test system: U251 CNS
[27] = test system: UACC-257 melanoma
[28] = test system: UACC-62 melanoma
[29] = test system: UO-31 renal
[30] = test system: XF 498 CNS
[31] = test system: A498 renal
[32] = test system: A549 NSCLC
[33] = test system: CAKI-1 renal
[34] = test system: CCRF-CEM leukemia
[35] = test system: DLD-1 colon
[36] = test system: HCC-2998 colon
[37] = test system: HCT-15 colon
[38] = test system: HL-60(TB) leukemia
[39] = test system: HOP-18 NSCLC
[40] = test system: HT29 colon
[41] = test system: K-562 leukemia
[42] = test system: KM20L2 colon
[43] = test system: LOX IMVI melanoma
[44] = test system: LXFL 529 NSCLC
[45] = test system: M14 melanoma
[46] = test system: NCI-H226 lung
[47] = test system: NCI-H23 lung
[48] = test system: NCI-H460 lung
[49] = test system: NCI-H522 lung
[50] = test system: OVCAR-3 ovarian
[51] = test system: OVCAR-4 ovarian
[52] = test system: OVCAR-8 ovarian
[53] = test system: RPMI-8226 leukemia
[54] = test system: SF-268 CNS
[55] = test system: SF-539 CNS
[56] = test system: SN12C renal
[57] = test system: SNB-78 CNS
[58] = test system: SW-620 colon

Which results are given for `CCN(CC)c1ccc(C(=C2C=CC(=[N+](CC)CC)C=C2)c2ccc(N(CC)CC)cc2)cc1`?
TGI [1]: 348 nM; TGI [2]: 503 nM; TGI [3]: 787 nM; TGI [4]: 1150 nM; TGI [5]: 1540 nM; TGI [6]: 1310 nM; TGI [7]: 1580 nM; TGI [8]: 1180 nM; TGI [9]: 1180 nM; TGI [10]: 1310 nM; TGI [11]: 588 nM; TGI [12]: 1160 nM; TGI [13]: 1780 nM; TGI [14]: 1060 nM; TGI [15]: 1040 nM; TGI [16]: 1180 nM; TGI [17]: 1110 nM; TGI [18]: 687 nM; TGI [19]: 1820 nM; TGI [20]: 237 nM; TGI [21]: 624 nM; TGI [22]: 1790 nM; TGI [23]: 1.44 µM; TGI [24]: 582 nM; TGI [25]: 1450 nM; TGI [26]: 1310 nM; TGI [27]: 1010 nM; TGI [28]: 1520 nM; TGI [29]: 724 nM; TGI [30]: 81.5 nM

For `COc1ccc(C(=O)Cc2cc(OC)ccc2OC)cc1`, which TGI [31] is on record?
The TGI was over 100 µM.

And the TGI [32]?
The TGI was over 100 µM.

What about the TGI [1] of the same compound?
The TGI was over 100000 nM.

What about the TGI [33] of the same compound?
The TGI was over 100 µM.

And the TGI [34]?
The TGI was over 100 µM.

What about the TGI [2] of the same compound?
The TGI was over 100000 nM.

And the TGI [35]?
Its TGI is over 100 µM.

What about the TGI [3] of the same compound?
The TGI was over 100000 nM.

What about the TGI [4] of the same compound?
The TGI was over 100000 nM.

What about the TGI [5] of the same compound?
Its TGI is over 100000 nM.

And the TGI [36]?
The TGI was over 100 µM.

And the TGI [6]?
Its TGI is over 100000 nM.

What about the TGI [37] of the same compound?
The TGI was over 100 µM.

What about the TGI [38] of the same compound?
The TGI was over 100 µM.

What about the TGI [39] of the same compound?
The TGI was over 100 µM.

And the TGI [7]?
Its TGI is over 100000 nM.

And the TGI [40]?
The TGI was over 100 µM.

What about the TGI [8] of the same compound?
The TGI was over 100000 nM.

What about the TGI [41] of the same compound?
Its TGI is over 100 µM.

And the TGI [42]?
Its TGI is over 100 µM.

What about the TGI [43] of the same compound?
Its TGI is over 100 µM.

What about the TGI [44] of the same compound?
Its TGI is over 100 µM.

What about the TGI [45] of the same compound?
The TGI was over 100 µM.

And the TGI [10]?
Its TGI is over 100000 nM.

What about the TGI [11] of the same compound?
Its TGI is over 100000 nM.

What about the TGI [13] of the same compound?
The TGI was over 100000 nM.

And the TGI [46]?
The TGI was over 100 µM.

And the TGI [47]?
Its TGI is over 100 µM.

And the TGI [48]?
Its TGI is over 100 µM.

What about the TGI [49] of the same compound?
Its TGI is over 100 µM.

What about the TGI [50] of the same compound?
Its TGI is over 100 µM.

And the TGI [51]?
Its TGI is over 100 µM.

And the TGI [14]?
Its TGI is over 100000 nM.

What about the TGI [52] of the same compound?
The TGI was over 100 µM.

What about the TGI [53] of the same compound?
Its TGI is over 100 µM.

What about the TGI [15] of the same compound?
Its TGI is over 100000 nM.

What about the TGI [16] of the same compound?
The TGI was over 100000 nM.

What about the TGI [54] of the same compound?
The TGI was over 100 µM.

And the TGI [17]?
The TGI was over 100000 nM.

And the TGI [55]?
The TGI was over 100 µM.

And the TGI [18]?
Its TGI is over 100000 nM.

What about the TGI [20] of the same compound?
Its TGI is over 100000 nM.

What about the TGI [21] of the same compound?
The TGI was over 100000 nM.

And the TGI [56]?
Its TGI is over 100 µM.

And the TGI [22]?
Its TGI is over 100000 nM.

What about the TGI [23] of the same compound?
Its TGI is 60.1 µM.

What about the TGI [57] of the same compound?
Its TGI is over 100 µM.

What about the TGI [24] of the same compound?
The TGI was over 100000 nM.

What about the TGI [58] of the same compound?
Its TGI is over 100 µM.

What about the TGI [25] of the same compound?
Its TGI is over 100000 nM.

What about the TGI [26] of the same compound?
Its TGI is over 100000 nM.

And the TGI [27]?
Its TGI is over 100000 nM.

What about the TGI [28] of the same compound?
The TGI was over 100000 nM.

And the TGI [29]?
Its TGI is over 100000 nM.
